# PMC3419816 (Journal of molecular neuroscience : MN, 2012)
# Like-named read-outs stand apart in the source and are kept apart here. Positions of bridges follow the written chain, without caps; N, C: chain ends. No end group written: not given here.
# Experiments:
# [1] = system: cytosolic Ca^2+ (NCI-H838 cells); experiment: Cytosolic Ca^2+ in Fura-2 AM loaded NCI-H838 cells; format: cell-based; settings: for effect on PACAP-induced increase in cytosolic Ca^2+ (discussion): NCI-H838 cells; for effect on PACAP-27-stimulated fluorescence intensity / effect on basal fluorescence intensity: 50 μM inhibitor; for effect on PACAP-27-stimulated fluorescence intensity: 100 nM PACAP-27, Fig. 1; for effect on basal fluorescence intensity: Fig. 1
# [2] = system: PYK-2; settings: NCI-H69, ref Roelle et al., 2008, cited from earlier work; for PYK-2 tyrosine phosphorylation: 10 μM
# [3] = system: epidermal growth factor receptor (EGFR); settings: ref Moody et al., 2012, cited from earlier work; for effect on PACAP-induced EGFR tyrosine phosphorylation: NCI-H838
# [4] = system: FAK; settings: pancreatic acini, cited from earlier work
# [5] = system: ERK; settings: NCI-H838; ref Moody et al., 2002; cited from earlier work
# [6] = system: PYK-2; settings: read-out: PYK-2 IC50, cited from earlier work
# [7] = system: FAK; settings: read-out: FAK IC50, cited from earlier work
# [8] = system: prostate, breast, pancreatic and colon tumors; settings: nude mice; ref Roberts et al., 2008; cited from earlier work
# [9] = system: ERK; settings: NCI-H69; ref Roelle et al., 2008; cited from earlier work
# [10] = system: ovarian tumor; settings: animal models; ref Halder et al., 2007; cited from earlier work
# [11] = system: glioma tumor; settings: animal models; ref Halder et al., 2007; cited from earlier work
# [12] = system: cytosolic Ca^2+ (pancreatic acini); settings: ref Pace et al., 2003; cited from earlier work
# [13] = system: NCI-H838 cells; settings: ref Moody et al., cited from earlier work; for growth of NCI-H838 cells: 2003b
# [14] = system: PYK-2; settings: 10 μM, NCI-H510; ref Roelle et al., 2008; cited from earlier work
# [15] = system: cytosolic Ca^2+ (NCI-H69 cells); settings: 10 μM, ref Roelle et al., 2008; cited from earlier work
# [16] = system: cytosolic Ca^2+ (NCI-H510 cells); settings: 10 μM, ref Roelle et al., 2008; cited from earlier work
# [17] = system: PYK-2; experiment: Total PYK-2 Western blot, NCI-H838 cells; format: cell-based; settings: 100 nM, 2 min, Fig. 3A
# [18] = system: cAMP; settings: lung cancer cells, cited from earlier work
# [19] = system: phosphatidylinositol turnover; settings: lung cancer cells, cited from earlier work
# [20] = system: PAC1; settings: cited from earlier work
# [21] = system: PYK-2; settings: by an increase in cytoplasmic Ca^2+; ref Lev et al., 1995; cited from earlier work
# [22] = system: VPAC1; settings: ref Ishihara et al., 1992; Lutz et al., 1993; cited from earlier work
# [23] = system: VPAC2; settings: ref Ishihara et al., 1992; Lutz et al., 1993; cited from earlier work
# [24] = ATP binding, ref Roberts et al., 2008
# [25] = ATP binding site, ref Liu et al., 2007
molecule,measurement,setting,value
O=C(O)CN(CC(=O)O)c1ccccc1OCCOc1ccccc1N(CC(=O)O)CC(=O)O [BAPTA],effect on PACAP-induced increase in cytosolic Ca^2+ (discussion),[1],inhibited
same,effect on GAL- or BK-induced PYK-2 phosphorylation,[2],blocked
same,effect on PACAP-induced EGFR tyrosine phosphorylation,[3],not BAPTA inhibited
CN(C)CCCn1cc(C2=C(c3c[nH]c4ccccc34)C(=O)NC2=O)c2ccccc21 [GF109203X],effect on CCK-induced FAK tyrosine phosphorylation,"[4]; ref Tapia et al., 1999",unaffected
O=S(=O)(NCCNC/C=C/c1ccc(Br)cc1)c1cccc2cnccc12 [H89],effect on PACAP-27-stimulated fluorescence intensity,[1],no effect
same,effect on basal fluorescence intensity,[1],no effect
COc1cccc(-c2cc(=O)c3ccccc3o2)c1N [PD98059],effect on PACAP-induced ERK tyrosine phosphorylation,[5],inhibited
"CN(c1ncccc1CNc1nc(Nc2ccc3c(c2)CC(=O)N3)ncc1C(F)(F)F)S(C)(=O)=O [PF-562,271]",IC50,[6]; [24],13 nM
same,IC50,[7]; [24],2 nM
same,"growth of prostate, breast, pancreatic and colon tumors",[8],inhibited
CC(C)(C)n1nc(-c2ccc(Cl)cc2)c2c(N)ncnc21 [PP2],effect on GAL- or BK-induced PYK-2 phosphorylation,[2],blocked
same,effect on GAL- or BK-induced ERK tyrosine phosphorylation,[9],blocked
same,effect on PACAP-induced EGFR tyrosine phosphorylation,[3],inhibited
CNC(=O)c1ccccc1Nc1nc(Nc2ccc(N3CCOCC3)cc2OC)ncc1Cl [TAE226],IC50,[6]; [25],5 nM
same,IC50,[7]; [25],5 nM
same,ovarian tumor growth,[10],inhibited
same,glioma tumor growth,[11],inhibited
COc1ccc2c(c1)CC[C@@H]1[C@@H]2CC[C@]2(C)[C@@H](NCCCCCCN3C(=O)C=CC3=O)CC[C@@H]12 [U73122],effect on ionomycin-induced increase in cytosolic Ca^2+,"[1]; 5 μM ionomycin, data not shown",little effect
same,effect on PACAP-27-stimulated fluorescence intensity,[1],abolished
same,effect on basal fluorescence intensity,[1],little effect
C/C=C(/C)C(=O)O[C@H]1C(C)=C2[C@H]([C@@H]1OC(=O)CCCCCCC)[C@@](C)(OC(C)=O)C[C@H](OC(=O)CCC)[C@@]1(O)[C@H]2OC(=O)[C@@]1(C)O [thapsigargin],effect on CCK-induced increase in cytosolic Ca^2+,[12],inhibits
"PACAP(6–38): PAC1 antagonist (FTDSYSRYRKQMAVKKYLAAVLGKRYKQRVKNK; ends and bridges not checked; UniProt P18509 137-169, looked up, fragment)",effect on PACAP-induced increase in cytosolic Ca^2+ (discussion),[1],blocked
same,effect on PACAP-induced EGFR tyrosine phosphorylation,[3],inhibited
same,growth of NCI-H838 cells,[13],inhibited
same,inhibition of proliferation of NCI-H838 cells,[13]; 2012,inhibited
"bradykinin (RPPGFSPFR; Bradykinin; UniProt P01042 381-389, looked up)",PYK-2 tyrosine phosphorylation,[2],increased
same,PYK-2 tyrosine phosphorylation,[14],increased
same,cytosolic Ca^2+,[15],increased
same,cytosolic Ca^2+,[16],increased
"galanin (GWTLNSAGYLLGPHAVGNHRSFSDKNGLTS; Galanin; UniProt P22466 33-62, looked up)",PYK-2 tyrosine phosphorylation,[2],increased
same,PYK-2 tyrosine phosphorylation,[14],increased
same,cytosolic Ca^2+,[15],increased
same,cytosolic Ca^2+,[16],increased
pituitary adenylate cyclase activating polypeptide [PACAP],total PYK-2,[17],did not change
same,ERK tyrosine phosphorylation,[5],caused ERK tyrosine phosphorylation
same,Y^1068-EGFR phosphorylation,"[3]; NCI-H838, after 1 min",increased
same,cAMP,[18]; ref not given,increases
same,PI metabolites,[19]; ref not given,increases
same,binding affinity to PAC1,[20]; ref not given for PACAP,high affinity
same,growth of NCI-H838 cells,[13],stimulated
platelet-derived growth factor,PYK-2 activation,[21],activated
vasoactive intestinal peptide [VIP],cAMP,"[18]; ref Lee et al., 1990",increases
same,PI turnover,"[19]; ref Lee et al., 1990",does not cause PI turnover
same,binding affinity to PAC1,"[20]; ref Ishihara et al., 1992, Lutz et al., 1993",low affinity
same,binding affinity to VPAC1,[22],high affinity
same,binding affinity to VPAC2,[23],high affinity
same,growth of NCI-H838 cells,[13],stimulated
"vasopressin (CYFQNCPRG-NH2; disulfide 1-6; ends not checked; UniProt P01185 20-28, looked up)",PYK-2 activation,[21],activated
"Cholecystokinin (peptide, UniProt P06307 21-115, looked up, Cholecystokinin) Cholecystokinin: QPVPPADPAGSGLQRAEEAPRRQLRVSQRTDGESRAHLGALLARYIQQARKAPSGRMSIVKNLQNLDPSHRISDRDYMGWMDFGRRSAEEYEYPS",tyrosine phosphorylation of FAK,"[4]; ref Pace et al., 2003",causes tyrosine phosphorylation
same,cytosolic Ca^2+,[12],elevates
